# From paper PMC4303309 (Biochemistry, 2014)
# Target: DaCld (Dechloromonas aromatica (nom. nud.), UniProt Q47CX0)
# Details: MCD as HOCl trap
# DaCld, sequence (Q47CX0 35-282 limits assumed): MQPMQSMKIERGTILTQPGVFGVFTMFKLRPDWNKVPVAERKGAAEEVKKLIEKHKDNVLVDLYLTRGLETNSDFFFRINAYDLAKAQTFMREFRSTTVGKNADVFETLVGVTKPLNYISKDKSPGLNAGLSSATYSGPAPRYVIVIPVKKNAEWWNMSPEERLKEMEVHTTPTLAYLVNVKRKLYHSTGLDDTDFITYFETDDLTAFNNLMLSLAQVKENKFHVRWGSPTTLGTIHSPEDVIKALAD
smiles,measurement,value
[O-][Cl+]O [chlorite],reaction with chlorite in the presence of MCD (UV-visible),no MCD-trappable HOCl could be detected for DaCld under conditions similar to those used
